Results on three molecules are retold here after US10039843B2, “Paramagnetic solid lipid nanoparticles (pSLNs) containing metal amphiphilic complexes for MRI” (BRACCO IMAGING S.P.A., priority 2012, dated 2018).

The data set in a line: Relaxivity values of some known compounds for MRI (Table I). Type of data set: physicochemical. Conditions: 0.47 T, 25° C., pH 7; for r1p HSA 4%: HSA 4% in NaCl 0.9%. An excerpt: As mentioned above, pSLNs usually show very high relaxivity in physiological medium, higher than values typically found in non-derivatized hydrophilic gadolinium complexes, in particular when formulated in SLNs, as better detailed in the experimental part for some representative compounds. As an example, relaxivity values for some Gd(III)complexes are indicated below, where values measured in physiologic conditions refer to those in obtained HSA 4% in NaCl 0.9%.

Regarding `C[NH2+]C[C@H](O)[C@@H](O)[C@H](O)[C@H](O)CO.O=C([O-])CN1CCN(CC(=O)[O-])CCN(CC(=O)[O-])CCN(CC(=O)[O-])CC1.[Gd+3]` [Gd-DOTA, Gadoterato meglumine [[1,4,7,10-tetraazacyclododecane-1,4,7,10-tetraacetate (4-)] gadolinate (1-)] meglumine], the “r1p HSA 4%” value amounted to 4.11 mM⁻¹ s⁻¹, the “r1p Human plasma (HP)” value was 4.51 mM⁻¹ s⁻¹ and the “r1p Water” value worked out at 3.61 mM⁻¹ s⁻¹.
As for `O=C([O-])CN1CCN(CC(=O)[O-])CCN([C@H](CO)[C@H](O)CO)CCN(CC(=O)[O-])CC1.[Gd+3]` (racemic) [Gd-BT-DO3A, Gadobutrol], the “r1p HSA 4%” value is 4.31 mM⁻¹ s⁻¹, the “r1p Human plasma (HP)” value was found to be 5.76 mM⁻¹ s⁻¹ and the “r1p Water” value came out at 3.75 mM⁻¹ s⁻¹.
The like results for `CC(O)CN1CCN(CC(=O)[O-])CCN(CC(=O)[O-])CCN(CC(=O)[O-])CC1.[Gd+3]` (stereo not drawn) [Gd-HP-DO3A, Gadoteridol[10-(2-hydroxyprop-1-yl) -1,4,7,10-tetraazacyclododecane-1,4,7-triacetate(3-)] gadolinium] were, in that order, 3.85 mM⁻¹ s⁻¹, 4.80 mM⁻¹ s⁻¹ and 3.32 mM⁻¹ s⁻¹.
